Consider 29 molecules from ChEMBL document CHEMBL1143329, “Discovery and SAR of benzyl phenyl ethers as inhibitors of bacterial phenylalanyl-tRNA synthetase” (Bioorg Med Chem Lett, 2009).

A short description of assay [1]: Inhibition of Haemophilus influenzae phenylalanyl-tRNA synthetase.
Assay [2] can be described thus: Inhibition of Streptococcus pneumoniae phenylalanyl-tRNA synthetase.

A value given as a limit tells only on which side of the number the result lay.

In the case of `CN1CCN(C(=O)c2ccc(OCc3cccc(Cl)c3)c(Cl)c2)CC1`, the IC50 in assay [1] was found to be 0.15 µM; in assay [2] it was 2.3 µM. The matching figures for `COC(=O)c1ccc([C@H](O)[C@@H](O)c2cccc(Cl)c2)c(C)c1`: 6.5 µM and > 64 µM. Regarding `NC(=O)c1nnc(-c2ccc(OCc3cccc(Cl)c3)c(Cl)c2)o1`, the IC50 in assay [1] came out at 2.6 µM; in assay [2], 81 µM.

For `COC(=O)c1ccc(NC(=O)c2cccc(Cl)c2)c(C)c1`, the IC50 in assay [1] and in assay [2] was > 64 µM each time. For the molecule `Cc1cc(C(=O)N2CCN(C(=O)C3CCCO3)CC2)ccc1CC(O)c1cccc(Cl)c1` (stereo not given), the IC50 in assay [1] was 0.28 µM; in assay [2] it was 11 µM. In the case of `CCN(CC)CCN(C)S(=O)(=O)c1ccc(OCc2cccc(Cl)c2)c(Cl)c1`, the IC50 came to 1.9 µM in assay [1] and 79 µM in assay [2]. The matching figures for `COC(=O)c1ccc(CN(C)c2cccc(Cl)c2)cc1`: > 64 µM and > 64 µM. The matching figures for `CCn1nccc1NC(=O)c1cc(Cl)c(OCc2cccc(Cl)c2)cn1`: 24 µM and 34 µM. The matching figures for `O=C(NCCN1CCOCC1)c1ccc(OCc2cccc(Cl)c2)c(Cl)c1`: 14 µM and 438 µM. Consider `CN1CCN(C(=O)c2ccc(CS(=O)(=O)c3cccc(Cl)c3)c(Cl)c2)CC1=O`, for which the IC50 in assay [1] and in assay [2] was > 64 µM in each case. `CN1CCN(C(=O)c2ccc(S(=O)(=O)Nc3cccc(Cl)c3)c(Cl)c2)CC1=O`: the IC50 in assay [1] and in assay [2] was > 64 µM throughout. As for `CCc1nnc(-c2ccc(OCc3cccc(Cl)c3)c(Cl)c2)o1`, the IC50 in assay [1] amounted to 11 µM; in assay [2], 76 µM.

Turning to `O=C(NCC1CC1)c1ccc(OCc2cccc(Cl)c2)c(Cl)c1`, the half-inhibitory concentration (IC50) in assay [1] stood at 57 µM; in assay [2], 393 µM. The matching figures for `COC(=O)c1ccc(N(C)Cc2cccc(Cl)c2)c(C)c1`: 0.17 µM and 3.5 µM. For `COC(=O)c1ccc(OCc2cc(F)cc(F)c2)c(Cl)c1`, the results for the IC50 in assay [1] and in assay [2] were 0.03 µM and 0.16 µM, respectively. The matching figures for `O=C(NC1CCC(O)CC1)c1cc(Cl)c(OCc2cccc(Cl)c2)cn1` (stereo not given): 1.5 µM and 28 µM.

As to `COC(=O)c1ccc(NCc2cccc(Cl)c2)c(C)c1`, the IC50 in assay [1] worked out at 3.5 µM; in assay [2], 6.1 µM. Consider `Nc1nnc(-c2ccc(OCc3cccc(Cl)c3)c(Cl)c2)o1`, for which the IC50 was 2.3 µM in assay [1] and 42 µM in assay [2]. The matching figures for `Cc1cc(C(=O)N2CCC(C(N)=O)CC2)ccc1CCc1cccc(Cl)c1`: 0.36 µM and 46 µM. Regarding `Nc1nnc(-c2cc(Cl)c(OCc3cccc(Cl)c3)cn2)o1`, in assay [2], the IC50 turned out to be 50 µM. That is a double-digit micromolar value.

`COC(=O)c1ccc([C@@H](O)[C@H](O)c2cccc(Cl)c2)c(C)c1`: the IC50 in assay [1] and in assay [2] was > 64 µM throughout. In the case of `Cc1ccc(C(=O)N2CCN(S(=O)(=O)c3ccc(OCc4cccc(Cl)c4)c(Cl)c3)CC2)cc1`, the IC50 in assay [1] turned out to be 1.9 µM; in assay [2] it was 12 µM. The matching figures for `Clc1cccc(COc2ccc(-c3nnco3)cc2Cl)c1`: 11 µM and 156 µM.

For the molecule `COC(=O)c1ccc(OCc2ccc(F)c(F)c2)c(Cl)c1`, the IC50 in assay [1] worked out at 0.0087 µM; in assay [2], 0.12 µM. For `COC(=O)c1ccc(/C=C/c2cccc(Cl)c2)c(C)c1`, the IC50 turned out to be 0.13 µM in assay [1] and 0.2 µM in assay [2].

Turning to `O=C(NCCCCO)c1ccc(OCc2cc(Cl)ccn2)c(Cl)c1`, the half-inhibitory concentration (IC50) was 16 µM in assay [1] and 34 µM in assay [2].

Turning to `CC(=O)Nc1nnc(-c2ccc(OCc3cccc(Cl)c3)c(Cl)c2)o1`, the results for the IC50 in assay [1] and in assay [2] were 1.3 µM and 28 µM, respectively.

Turning to `CN1CCN(C(=O)c2ccc(COc3cccc(Cl)c3)c(Cl)c2)CC1`, the IC50 in assay [1] came to 0.84 µM. The same measure, in the same setting: for `Cc1cc(C(=O)N2CCC(C(N)=O)CC2)ccc1OCc1cccc(Cl)c1` the value was 0.15 µM.

Broadly, the IC50 is the concentration needed to halve the response being measured. A low value points to higher potency.
